5 cell lines from the supplement of paper PMC10307832 can be followed below.

What all share (assay): relative viability (nuclei count vs DMSO), 5 days (fraction); higher = more cells survive
Compound in assay [1]: CCc1c2c(nc3ccc(OC(=O)N4CCC(N5CCCCC5)CC4)cc13)-c1cc3c(c(=O)n1C2)COC(=O)[C@]3(O)CC [Irinotecan] + C[C@]1(O)C[C@@H](c2nc(-c3ccc4ccc(-c5ccccc5)nc4c3)c3c(N)nccn32)C1 [Linsitinib] (partner 1 µM)
A digest of the protocol: (§1)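 Relative viability was taken as the ratio of nuclei in treated wells to nuclei in vehicle wells. Lung cancer cell lines in 1536-well plates received compounds by pin tool one day after seeding, either one drug alone or a fixed anchor-drug dose plus five library-drug doses (not always all listed) in √10 steps. Nuclei were counted on 4× images after 5 days of treatment, and values are medians of duplicate plates.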

Compound in assay [2]: Cn1cc(-c2cnc3ccc4ccc(CS(=O)(=O)NCc5ccccn5)cc4c(=O)c3c2)cn1 [MK-8033] + CCNC(=O)c1noc(-c2cc(C(C)C)c(O)cc2O)c1-c1ccc(CN2CCOCC2)cc1 [Luminespib] (partner 0.01 µM)
A digest of the protocol: as §1

Compound in assay [3]: Cn1cc(-c2cnc3ccc4ccc(CS(=O)(=O)NCc5ccccn5)cc4c(=O)c3c2)cn1 [MK-8033] + COc1cccc2cc(-c3nc([C@H]4CC[C@H](C(=O)O)CC4)n4ncnc(N)c34)[nH]c12 [OSI-027] (partner 0.5 µM)
A digest of the protocol: as §1

Compound in assay [4]: Cn1cc(-c2cnc3ccc4ccc(CS(=O)(=O)NCc5ccccn5)cc4c(=O)c3c2)cn1 [MK-8033] + Nc1nc2[nH]cc(CCc3ccc(C(=O)N[C@@H](CCC(=O)O)C(=O)O)cc3)c2c(=O)[nH]1 [Pemetrexed] (partner 0.2 µM)
A digest of the protocol: as §1

In the case of PC-14, the relative viability in assay [1] (first compound 0.6325 µM) is 0.902; in assay [1] (first compound 2 µM) it was 0.609; in assay [1] (first compound 6.325 µM) it was 0.188; in assay [1] (first compound 20 µM), 0.204; in assay [2] (first compound 0.02 µM), 0.125; in assay [2] (first compound 0.06325 µM), 0.128. The relative viability in assay [2] (first compound 0.2 µM) amounted to 0.131; in assay [2] (first compound 0.6325 µM), 0.174; in assay [2] (first compound 2 µM) it was 0.224; in assay [3] (first compound 0.02 µM), 0.835; in assay [3] (first compound 0.06325 µM), 0.742; in assay [3] (first compound 0.2 µM), 0.828. The relative viability in assay [3] (first compound 0.6325 µM) was 0.773; in assay [3] (first compound 2 µM) it was 0.73; in assay [4] (first compound 0.02 µM), 0.143; in assay [4] (first compound 0.06325 µM) it was 0.121; in assay [4] (first compound 0.2 µM), 0.142; in assay [4] (first compound 0.6325 µM) it was 0.149. Besides, in assay [4] (first compound 2 µM), the relative viability amounted to 0.135.

As to RERF-LC-KJ, the relative viability in assay [1] (first compound 0.6325 µM) was found to be 0.807; in assay [1] (first compound 2 µM) it was 0.647; in assay [1] (first compound 6.325 µM), 0.379; in assay [1] (first compound 20 µM) it was 0.34; in assay [2] (first compound 0.02 µM), 1.14; in assay [2] (first compound 0.06325 µM) it was 1.14. Moreover, the relative viability is 1.25 in assay [2] (first compound 0.2 µM); 1.24 in assay [2] (first compound 0.6325 µM); 1.06 in assay [2] (first compound 2 µM); 0.554 in assay [3] (first compound 0.02 µM); 0.535 in assay [3] (first compound 0.06325 µM); 0.531 in assay [3] (first compound 0.2 µM). In addition, the relative viability in assay [3] (first compound 0.6325 µM) stood at 0.521; in assay [3] (first compound 2 µM) it was 0.509; in assay [4] (first compound 0.02 µM), 0.459; in assay [4] (first compound 0.06325 µM), 0.467; in assay [4] (first compound 0.2 µM), 0.501; in assay [4] (first compound 0.6325 µM) it was 0.462. Moreover, the relative viability in assay [4] (first compound 2 µM) was 0.471.

Regarding SK-LU-1, the relative viability in assay [1] (first compound 0.6325 µM) was determined as 0.491; in assay [1] (first compound 2 µM), 0.495; in assay [1] (first compound 6.325 µM) it was 0.379; in assay [1] (first compound 20 µM), 0.329; in assay [2] (first compound 0.02 µM), 0.188; in assay [2] (first compound 0.06325 µM), 0.236. The relative viability in assay [2] (first compound 0.2 µM) amounted to 0.223; in assay [2] (first compound 0.6325 µM) it was 0.188; in assay [2] (first compound 2 µM) it was 0.192; in assay [3] (first compound 0.02 µM) it was 0.347; in assay [3] (first compound 0.06325 µM) it was 0.352; in assay [3] (first compound 0.2 µM) it was 0.315. For the same cell line, the relative viability in assay [3] (first compound 0.6325 µM) is 0.4; in assay [3] (first compound 2 µM), 0.371; in assay [4] (first compound 0.02 µM) it was 0.974; in assay [4] (first compound 0.06325 µM), 0.944; in assay [4] (first compound 0.2 µM), 0.929; in assay [4] (first compound 0.6325 µM), 0.625. For the same cell line, in assay [4] (first compound 2 µM), the relative viability is 0.956.

In the case of SK-MES-1, the relative viability in assay [1] (first compound 0.6325 µM) was found to be 0.997; in assay [1] (first compound 2 µM) it was 0.646; in assay [1] (first compound 6.325 µM) it was 0.315; in assay [1] (first compound 20 µM), 0.281; in assay [2] (first compound 0.02 µM), 0.628; in assay [2] (first compound 0.06325 µM), 0.728. Also, the relative viability in assay [2] (first compound 0.2 µM) came out at 0.722; in assay [2] (first compound 0.6325 µM), 0.908; in assay [2] (first compound 2 µM), 0.823; in assay [3] (first compound 0.02 µM), 0.621; in assay [3] (first compound 0.06325 µM), 0.592; in assay [3] (first compound 0.2 µM), 0.566. The relative viability in assay [3] (first compound 0.6325 µM) worked out at 0.605; in assay [3] (first compound 2 µM), 0.535; in assay [4] (first compound 0.02 µM), 0.986; in assay [4] (first compound 0.06325 µM), 0.949; in assay [4] (first compound 0.2 µM) it was 0.904; in assay [4] (first compound 0.6325 µM), 0.892. In addition, the relative viability in assay [4] (first compound 2 µM) was determined as 0.853.

Turning to SW 1573, the relative viability turned out to be 0.627 in assay [1] (first compound 0.6325 µM); 0.534 in assay [1] (first compound 2 µM); 0.2 in assay [1] (first compound 6.325 µM); 0.178 in assay [1] (first compound 20 µM); 0.178 in assay [2] (first compound 0.02 µM); 0.206 in assay [2] (first compound 0.06325 µM). Moreover, the relative viability in assay [2] (first compound 0.2 µM) stood at 0.719; in assay [2] (first compound 0.6325 µM), 0.366; in assay [2] (first compound 2 µM), 0.185; in assay [3] (first compound 0.02 µM), 0.818; in assay [3] (first compound 0.06325 µM), 0.529; in assay [3] (first compound 0.2 µM), 0.544. Besides, the relative viability amounted to 0.603 in assay [3] (first compound 0.6325 µM); 0.513 in assay [3] (first compound 2 µM); 0.866 in assay [4] (first compound 0.02 µM); 0.807 in assay [4] (first compound 0.06325 µM); 0.766 in assay [4] (first compound 0.2 µM); 0.834 in assay [4] (first compound 0.6325 µM). In addition, the relative viability in assay [4] (first compound 2 µM) amounted to 0.791.
